# Like-named read-outs stand apart in the source and are kept apart here.
# How the values were obtained:
# [1] = test system: bovine aortic endothelial cells (BAEC); test: Cellular superoxide anion formation (SOD-inhibitable reduction of ferricytochrome C); type: cell-based; conditions: for inhibition of O2^•- production induced by A-23187: 5 × 10^-4M, A-23187 1 µM; for inhibition at 500 µM: Bos taurus, BAEC
# Description: Cellular superoxide anion formation in the presence of NOS agonists. […] After reaching confluency, cells were washed 3 times (3 ml) with Dulbecco's phosphate buffered saline (DPBS) and 2 coverslips were placed in a disposable plastic cuvette facing each other. DPBS (1.8 ml) was gently placed in cuvette in addition to ferricytochrome C (final concentration, 50 µmol/L). […] Change in absorbance over time was determined and the amount of superoxide anion [ε=[…]] generated was determined over time and reported as pmoles O2^•-/min./10^6 cells.
# [2] = target: T1, nitric oxide synthase (NOS) (Bos taurus, UniProt P29473); test: NO production in cultured endothelial cells (oxyhemoglobin to methemoglobin conversion and NO sensitive electrode); type: cell-based, bovine
# T1 construct: DOX activity as a NOS agonist was investigated in cultured bovine aortic EC; endogenous in cells; host or cells: cultured bovine aortic endothelial cells
# From the text: Doxazosin, a selective alpha-1 blocker, is pharmacologically similar to prazosin and terazosin. It has been shown that selective alpha-1 blockers lower total and LDL cholesterol. Thus, these selective alpha-1 blockers may be useful in treating both hypertension and hypercholesterolemia. […] In fact, a wide variety of vasoactive agents (e.g. bradykinin, muscarinic agonists and growth factors) which increase tPA levels are also agonists of nitric oxide synthase (NOS). DOX activity as a NOS agonist was investigated in cultured bovine aortic EC using two methods to assess NO production: conversion of oxyhemoglobin to methamoglobin and a NO sensitive electrode. […] This increase in NO to DOX (10^-6 M) was blocked by 72% by prior administration of the NOS inhibitor, L-NAME (5 x 10^-4 M). In addition, the NO responses were accentuated by the presence of supplemental L-arginine (5 x 10^-4 M) by 65%. […] This increase in NO to ACH (10^-6 M) was blocked by 86% by prior administration of L-NAME. In addition, the NO responses were accentuated by 72% in the presence of supplemental L-arginine. DOX, therefore, appears to be a NOS agonist in EC.
# For all experiments, human coronary artery endothelial cells (passage 3-5 - Clonetics) were maintained at 37°, […] and 5% CO2 in Medium 199 (M199) supplemented with 5% fetal bovine serum (FBS, Hyclone), 10% iron supplemented FBS (Hyclone), thymidine (100mg mL^-1), penicillin G (100U mL^-1) and streptomycin (100µg mL^-1).
# In all experiments, the effects of pretreatment with L-NAME (10^-3 M) in blocking the actions of DOX, and excess L-arginine (10^-3 M) in reversing any L-NAME effect was examined. Acetylcholine, an eNOS agonist, was used in all experiments as the positive control at concentrations of 10^-7 and 10^-6 M.
# Methemoglobin - The effect of DOX on NO production in EC was determined using a photometric assay for conversion of oxyhemoglobin to methemoglobin. For this assay, EC grown to confluency on microcarrier beads are placed into a water-jacketed chromatography column and superfused with a Kreb's-Ringer buffer containing 3 µM oxyhemoglobin and 50 µM LA (L-arginine). Perfusate is then directed into a flow-through cuvette in a dual wavelength spectrophotometer and change in absorbancy (415/405 nm) is measured. Experimental stimulation was carried out by 3 min infusion periods of DOX added to buffer perfusion to yield final concentrations of 10^-7 and 10^-6 M. For analysis, we determined the area under the curve for the change in absorbancy response/min caused by DOX assuming a one to one correspondence for NO and metHb production, the known stoichiometric balance for this reaction. No electrode - NO production was measured with a NO meter connected to a polargraphic NO electrode as previously described. The NO sensor probe will be inserted vertically into 24-well plates containing confluent EC such that the tip of the electrode is submerged 2 mm under the surface of medium (above - 1ml). The reaction was initiated when desired concentrations of DOX are added to the well. Calibrations were performed with S-nitroso-acetyl-penicillamine.
# Bovine aortic EC = test: LA transport after exposure to homocysteine and its thiolactone; type: cell-based
# From the text: A third aspect of the present invention is the treatment, prevention, or amelioration of homocysteinemia with L-arginine alone. Hyperhomocysteinemia is associated with vascular EC dysfunction and increased risk for atherosclerosis and atherothrombosis. Free radical formation during homocyst(e)ine auto-oxidation has been implicated in its vascular toxicity. Long-term EC exposure to homocyst(e)ine limits nitric oxide synthase (NOS) activity, increasing EC vulnerability to oxidative injury (Stamler et al., 1993). To see whether these effects could be due to alterations in cellular availability of the NOS substrate LA, we tested the effects on LA transport of D,L-homocysteine (DLH) and an auto-oxidation product, L-homocysteine thiolactone (LHT). Bovine aortic EC were exposed to DLH and LHT (1.1-5 mM) for 6 and 24 hours and then incubated with […] [^3H]-LA for 1 min. Cells were washed with ice cold buffer, lysed in 0.5% SDS in 0.1 N NaOH and radioactivity was determined. DLH increased LA uptake in a concentration dependent manner at 6 hr. […] However, after 24 hr. exposure LA uptake was decreased (25-40%).
# y^+ transporter = test: Cellular uptake of [3H]-L-arginine via y+ transport in the presence of NOS agonists and NO donors; type: cell-based, bovine; conditions: for maximum inhibition of LA transport: Fig. 8; for inhibition of LA transport: data not shown; for increase of [^3H]-LA uptake / increase of LA uptake: Ach 5 µM
# Description: Characterization of L-arginine transport system in bovine aortic endothelial cells. […] Prior to experiments, cells were split 1:4, transferred into 24 well plates, and allowed to grow to confluency. […] CaCl2, 1.8 mM; KCl 5.4 mM, choline 140 mM; […] Uptake of LA was terminated by addition of ice cold buffer and cells were washed three times with 1 ml of buffer. […] Cellular uptake of LA via B^α+ system was determined by substituting sodium chloride for choline and incubating as described above. The difference in uptake determined for both transporters and that observed for y+ alone represented the amount of LA uptake contributed by sodium-dependent B^α+ system. […] It has been previously reported that passive, non-saturable diffusion of LA can occur but only when extracellular levels of LA are within the millimolar concentration. […] Uptake of LA was terminated and total cellular transport of LA determined as described above.
# [3] = cited from earlier work
# [4] = read-out: reduced O2· induced by SP
compound,measurement,setting,value
"COC(=O)[C@@H](N)CCCN=C(N)N[N+](=O)[O-] [L-NAME, n-ω-nitro-L-arginine methyl ester]",inhibition of O2^•- production induced by A-23187,[1],58%
same,inhibition at 500 µM,"[1]; 1 h, read-out: prevented basal production of O2^•-",100%
same,inhibition at 500 µM,[1]; [4],81%
same,increase in NO blocked by prior administration of L-NAME,[2]; NO response to ACH 10^-6 M,86%
same,inhibition at 500 µM,[2]; read-out: increase in NO blocked by prior administration of L-NAME,72%
"N[C@H]1CCSC1=O [LHT, L-homocysteine thiolactone]",LA transport,"Bovine aortic EC; after 6 and 24 hrs exposure, 1.1-5 mM",dose-related decrease
"NCCCN(CCCN)/[N+]([O-])=N/O [DPTA-NONOate, dipropylenetriamine NONOate]",maximum inhibition of LA transport,"y^+ transporter; 0.01 µM DPTA, 2 hour exposure",20%
same,effect on y^+ system,"y^+ transporter; 1 µM DPTA-NONOate (2 µM NO), 15 and 30 min",no significant effect
same,inhibition of LA transport,"y^+ transporter; 1 µM DPTA-NONOate (2 µM NO), 1 hour exposure",22%
same,inhibition of LA transport,"y^+ transporter; 1 µM DPTA-NONOate (2 µM NO), 2 hour exposure",24%
same,inhibition of LA transport,"y^+ transporter; 1 µM DPTA-NONOate (2 µM NO), 4 hour exposure",29%
same,maximum inhibition of LA transport,"y^+ transporter; 1 µM DPTA, 2 hour exposure",24%
same,maximum inhibition of LA transport,"y^+ transporter; 10 µM DPTA, 2 hour exposure",44%
"CC(=O)N[C@H](C(=O)O)C(C)(C)SN=O [SNAP, S-nitroso-acetyl-penicillamine]",t1/2 of NO donation,[3],~ 10 minutes
same,increased activity of the Y^+ transporter,"y^+ transporter; 200 µM SNAP (0.4 µM NO), ten minutes of exposure",37%
same,elevation of Y^+ transporter activity,"y^+ transporter; 200 µM SNAP, 30 minute exposure",not seen
same,uptake of [^3H]-LA reduced,"y^+ transporter; 200 µM SNAP, 1 hour",22%
same,reduction of uptake of [^3H]-LA,"y^+ transporter; 200 µM SNAP, 2 hour exposure",46%
same,reduction of uptake of [^3H]-LA,"y^+ transporter; 200 µM SNAP, 3 hour exposure",45%
same,reduction of uptake of [^3H]-LA,"y^+ transporter; 200 µM SNAP, 5 hour exposure",36%
"COc1cc2nc(N3CCN(C(=O)C4COc5ccccc5O4)CC3)nc(N)c2cc1OC (stereo not shown) [DOX, Doxazosin]",dose-related increase in NO production,"[2]; DOX 10^-7 - 10^-5 M, cultured bovine aortic EC",64-145%
CNc1ccc2oc(C[C@H]3O[C@@]4(CC[C@H]3C)O[C@H]([C@H](C)C(=O)c3ccc[nH]3)[C@H](C)C[C@H]4C)nc2c1C(=O)O [A-23187],increased O2· production above basal levels,[1],2.5 fold
"CC(=O)OCC[N+](C)(C)C [Acetylcholine, acetylcholine]",increase of [^3H]-LA uptake,y^+ transporter; 2 minute exposure,22%
same,increase of [^3H]-LA uptake,y^+ transporter; 15 minute (maximum),27%
same,increase of LA uptake,y^+ transporter; 30 minutes,16%
same,increase of LA uptake,y^+ transporter; 60 minutes,15.5%
N=C(N)NCCC[C@H](N)C(=O)O [L-arginine],inhibition of O2^•- production induced by A-23187,[1],60%
same,inhibition at 500 µM,[1]; [4],51%
same,prevention of basal production of O2^•-,"[1]; LA 5 x 10^-4M, basal",not
same,NO responses accentuated by supplemental L-arginine,"[2]; NO responses to DOX, L-arginine 5 x 10^-4 M",65%
same,NO responses accentuated in the presence of supplemental L-arginine,[2]; NO responses to acetylcholine,72%
"NC(CCS)C(=O)O (racemic) [DLH, D,L-homocysteine]",LA uptake decreased,"Bovine aortic EC; 24 hr. exposure, 1.1-5 mM",25-40%
same,activation at 5000 µM,"Bovine aortic EC; Bos taurus, 5 mM, 6 hr exposure, read-out: maximum increase of LA uptake",53%
"bradykinin (RPPGFSPFR; Bradykinin; UniProt P01042 381-389, looked up) [BK]",increase of cellular transport of LA,"y^+ transporter; BK 1αM, 15 minute exposure (maximum)",42%
same,increase of cellular transport of LA,"y^+ transporter; BK 1αM, 30 minutes",39%
same,increase of cellular transport of LA,"y^+ transporter; BK 1αM, 60 minutes",16%
same,enhanced cellular uptake of LA,"y^+ transporter; BK 1αM, 2 hour exposure",38%
same,increase in transport of LA,"y^+ transporter; BK 1αM, 3 hour exposure",19%
same,increase in transport of LA,"y^+ transporter; BK 1αM, 5 hour exposure",22%
"CSCC[C@H](NC(=O)[C@H](CC(C)C)NC(=O)CNC(=O)[C@H](Cc1ccccc1)NC(=O)[C@H](Cc1ccccc1)NC(=O)[C@H](CCC(N)=O)NC(=O)[C@H](CCC(N)=O)NC(=O)[C@@H]1CCCN1C(=O)[C@H](CCCCN)NC(=O)[C@@H]1CCCN1C(=O)[C@@H](N)CCCNC(=N)N)C(N)=O [SP, substance P]",increased O2· production above basal levels,"[1]; 1 µM, 60 minute period",3.5 fold
same,increase of y^+ transport of LA into cells,"y^+ transporter; SP 1µM, 15 minutes exposure",24%
same,increase of y^+ transport of LA into cells,"y^+ transporter; SP 1µM, 30 minutes",24%
same,increase of y^+ transport of LA into cells,"y^+ transporter; SP 1µM, 60 minutes",21%
same,y^+ transporter activity enhanced from control values,"y^+ transporter; SP 1µM, 2 hour exposure",≤ 34%
same,cellular LA increase,"y^+ transporter; SP 1µM, 3 hour exposure",27%
same,cellular LA increase,"y^+ transporter; SP 1µM, 5 hour exposure",21%

# — patent publication EP1671630A2, “L-Arginine based formulations for treating diseases and methods of using the same” (Angiogenix, Inc., priority 1999, dated 2000)
